# Test results taken from US8003630B2, “Combinatorial therapies for the treatment of neoplasias using the opioid growth factor receptor” (The Penn State Research Foundation, priority 2004, dated 2011).
# Marks after values point to notes of the source that are not given here.
# Legend:
# [1] = tested on: SCC-1 cells; experiment: Necrosis, trypan blue positivity of SCC-1 cells; format: cell-based, human; conditions: SCC-1 cultures or supernatants
# Protocol: Cell number was recorded either by using the MTS proliferation bioassay (Cell Titer 96 One Solution, Promega, Madison, Wis.) and measuring absorbency after 4 hr on a Biorad (Model 3550) plate reader at 490 nm with a 750 nm background absorbance screening, or by directly counting cells. The MTS assay utilized 10 wells/treatment. For manual counts, cells were harvested by trypsinization with 0.25% trypsin/0.53 mM EDTA, centrif uiged, and counted with a hemacytometer. Cell viability was determined by trypan blue staining. At least two aliquots per well, and 4-10 wells/treatment, were counted at each time for manual counting.
# [2] = tested on: SCC-1 SCCHN cells; conditions: athymic nude, mouse, in vivo
# Protocol: Tumor dimensions were recorded every day beginning on the day that the tumors were considered measurable.
# [3] = tested on: SCC-1 cells; experiment: SCC-1 xenograft in nude mice, tumor growth, survival, termination day measurements (Example 9); conditions: for latency time to develop visible tumors: controls 7 days; for Incidence of measurable tumor (day 17) / Incidence of measurable tumor (day 13): mice with tumor/N; for Incidence of measurable tumor (day 13): OGF 10 mg/kg daily and/or paclitaxel 8 mg/kg every other day i.p.; for Metastases: spleen, liver, lymph nodes
# Text: (§1) Male 4 week old nu/nu nude mice purchased from Harlan Laboratories (Indianapolis, Ind.) were housed in pathogen-free isolators in the Department of Comparative Medicine at the Penn State University College of Medicine. All procedures were approved by the IACUC committee of the Penn State University College of Medicine and conformed to the guidelines established by NIH. Mice were allowed 48 hr to acclimate prior to beginning experimentation.
# Tumor cells were inoculated into nude mice by subcutaneous injection into the right scapular region. Subcutaneous injections were performed with at least 2×10^6 cells per mouse; mice were not anesthetized for this procedure.
# Dosages were selected based on published reports. […] Injections of drugs were initiated 1 hr after tumor cell inoculation. […] Mice were weighed weekly to determine drug dosage.
# Mice were observed daily for the presence of tumors. The latency for a visible tumor to appear, and the time until tumors were measurable (i.e., 62.5 mm^3), were recorded. Tumors were measured using calipers every day. Tumor volume was calculated using the formula w^2×1×π/6, where the length is the longest dimension, and width is the dimension perpendicular to length.
# According to institutional policies and IACUC guidelines, mice were terminated when tumors became ulcerated, or tumors grew to 2 cm in diameter. […] Tumors and spleens were removed and weighed, and the lymph nodes, liver, and spleen examined for metastases.
# [4] = Plasma levels of OGF by radioimmunoassay, SCC-1 tumor mice; format: in vivo, nude mice; conditions: at termination
# Protocol: Plasma samples were assayed in duplicate.
# [5] = tested on: advanced unresectable pancreatic adenocarcinoma; conditions: some patients; cited from earlier work
# [6] = tested on: MiaPaCa-2 cells; experiment: OGF/gemcitabine treatment in athymic nude mouse model (Example 5); format: in vivo, athymic nude mice
# Text: To examine the effectiveness of the combined OGF/gemcitabine treatments in vivo, an athymic nude mouse model was used.
# [7] = tested on: MIA PaCa-2 cells; experiment: MIA PaCa-2 xenograft in nude mice, tumor appearance, growth and termination day measurements (Example 7); format: in vivo, BALB/c-nu/nu nude mice
# Text: as §1, with “BALB/c-nu/nu” for “nu/nu”
# MIA PaCa-2 cells (10^6 cells/mouse) were inoculated into nude mice by subcutaneous injection into the right scapular region; mice were not anesthetized for this procedure.
# All drugs were dissolved in saline and prepared weekly. Injections were given within 1 hr of tumor cell inoculation.
# Mice were weighed weekly throughout the experiment, and observed daily for the presence of tumors. The latency for a visible tumor to appear, and the time until tumors were measurable (i.e., 62.5 mm^3) were recorded. Tumors were measured using calipers every day after tumor appearance. Tumor volume was calculated using the formula w^2×1×π/6, where the length is the longest dimension, and width is the dimension perpendicular to length.
# According to IACUC guidelines, mice were terminated when tumors became ulcerated, or tumors grew to 2 cm in diameter. Forty-five days following tumor cell inoculation, all mice were euthanized by an overdose of sodium pentobarbital (100 mg/kg) and killed by cervical dislocation; mice (with tumors) were weighed. Tumors and spleens were removed and weighed, and the lymph nodes, liver, and spleen examined for metastases.
# [8] = tested on: PANC-1 cells; experiment: Growth assay of PANC-1 cells in 6-well plates; format: cell-based, human; conditions: 72 hr, OGF 10^−6 M and/or gemcitabine 10^−8 M
# Protocol: MIA PaCa-2 and PANC-1 human pancreatic adenocarcinoma cell lines were purchased from the American Type Culture Collection (Manasass, Va.). MIA PaCa-2 cells were derived from an undifferentiated epithelial carcinoma occurring in the body and tail of the pancreas in a person. The PANC-1 cells were derived from an undifferentiated carcinoma from the head of the pancreas in a person. MIA PaCa-2 and PANC-1 cells were grown in Dulbecco's MEM (modified) media; media was supplemented with 10% fetal calf serum, 1.2% sodium bicarbonate, and antibiotics (5,000 Units/ml penicillin, 5 mg/ml streptomycin, 10 mg/ml neomycin), and the cells were maintained in a humidified atmosphere of 7% CO2/93% air at 37° C.
# MIA PaCa-2 cells were seeded at equivalent amounts into either 75 cm^2 flasks, 6-well plates, or 96-well plates (Falcon) and counted 24 hr later to determine plating efficiency. […]
# Cell number was recorded either by using a mitogenic bioassay, the MTS assay (Cell Titer 96 One Solution, Promega, Madison, Wis.), and measuring absorbency after 4 hr on a Biorad (Model 3550) plate reader at 490 nm, or by counting cells. For manual counts, cells were harvested with a solution of 0.25% trypsin/0.53 mM EDTA, centrif uiged, and counted with a hemacytometer. Cell viability was determined by trypan blue staining. At least two aliquots per flask or 4-10 wells/treatment were counted at each time.
# [9] = day 50 (paclitaxel group: day each mouse died), means ± SEM
compound,measurement,setting,value
CC(=O)O[C@H]1C(=O)[C@@]2(C)[C@H]([C@H](OC(=O)c3ccccc3)[C@]3(O)C[C@H](OC(=O)[C@H](O)[C@@H](NC(=O)c4ccccc4)c4ccccc4)C(C)=C1C3(C)C)[C@]1(OC(C)=O)CO[C@@H]1C[C@@H]2O [paclitaxel],"necrosis, number of trypan blue positive cells versus control",[1],No differences in necrosis
same,"mice still alive on termination day, % of the group",[2]; 50 day,8%
same,day on which mice began dying,[2]; 50 days,19 days
same,deaths during the experimental period,[3]; 50 days,only one mouse in this group was alive
same,latency time to develop visible tumors,[3],comparable
same,mice with measurable tumors,[3]; day 13,66%
same,mice with measurable tumors,[3]; day 17,83%
same,"Body Weight, g",[3]; [9],22.6 ± 0.8***+++^^^ g
same,Spleen Weight,[3]; [9],243 ± 8 mg
same,mice that had died by day 40,"[3]; male, nu/nu nude, mouse, in vivo, 8 mg/kg, 40 day",75%
same,time within which mice began dying,"[3]; male, nu/nu nude, mouse, in vivo, 50 days",≤ 20 days
same,Latency to measurable tumor,[3]; means ± SEM,14.8 ± 1.7 days
same,Latency to visible tumor,[3]; means ± SEM,7.4 ± 1.4 days
same,Incidence of measurable tumor (day 17),[3],10/12
same,Incidence of measurable tumor (day 13),[3],8/12
same,body weight subnormal by,"[3]; mouse, in vivo",9-10%
same,gross observations and pathological findings,"[3]; mouse, in vivo","distended abdomens, impacted bowel, and severe body weight loss"
same,Metastases,[3],none
same,OGF levels in plasma versus control mice with tumors,[4],No differences
[Met^5]-enkephalin [OGF],longest survival of patients,[5],≤ 23 months
same,mice with tumors,[6]; day 16 after tumor cell inoculation,all mice
same,"tumors smaller than control mice, reduction",[6]; from the 6th timepoint (12th day of measurable tumor),29.9-40.7%
same,day from which tumor volume differed from controls,[7]; at least p<0.05,14 days
same,mice with measurable tumors,[7]; day 10,60%
same,tumor volumes decreased from control values,[7]; day 45,46%
same,"Tumor Volume, mm^3","[7]; day 45, means ± SEM",4849 ± 490*** mm^3
same,Tumor Weight,"[7]; day 45, means ± SEM",3.5 ± 0.5 g
same,Latency to measurable tumor,[7]; means ± SEM,14.2 ± 0.8 days
same,Latency to visible tumor,[7]; means ± SEM,10.7 ± 0.8 days
same,"Tumor Incidence, day 16",[7]; mice with tumor/N,10/10
same,"Tumor Incidence, day 10","[7]; mice with tumor/N, OGF 10 mg/kg daily and/or gemcitabine 120 mg/kg every 3 days i.p.",6/10
same,weights of tumors decreased from control levels,[7]; termination day (day 45),36%
same,latency time to develop visible tumors,[3],11 days
same,mice with measurable tumors,[3]; day 13,33%
same,mice with measurable tumors,[3]; day 17,66%
same,tumor volume reduction from control values,[3]; day 50,33%
same,"Tumor Volume, mm^3","[3]; day 50, means ± SEM",2590 ± 364* mm^3
same,Tumor Weight,"[3]; day 50, means ± SEM",1.7 ± 0.2 g
same,Latency to measurable tumor (days),[3]; means ± SEM,17.0 ± 1.5^ days
same,Latency to visible tumor (days),[3]; means ± SEM,11.2 ± 1.5^b days
same,Incidence of measurable tumor (day 17),[3],8/12
same,Incidence of measurable tumor (day 13),[3],4/12^a
same,delay of visible tumors versus controls,[3]; p<0.02,four-day delay
same,Metastases,[3],none
same,weights of tumors reduced from control levels,[3]; termination day (day 50),29%
same,fewer cells than in control cultures,[8],31%
